Laboratory results as given in patent publication US6492407B2, “Pharmaceutical compositions containing triazolones and methods of treating neurodegenerative disease using triazolones” (Boehringer Imgelheim Pharma KG, priority 1998, dated 2002).
pKi: −log10 of the molar value. Structures can show the parent of a compound that is named as a salt.

Assays:
AMPA receptor = test: Inhibition of the cainate-induced signal at the AMPA receptor, electrophysiology on neuronal cells (patch-clamp method); type: cell-based; conditions: test concentration of 100 μM
Protocol: The testing was carried out at a test concentration of 100 μM.

[1] = target: Na+ channel site 2 binding site; test: Affinity to the "Na+ channel site 2" binding site (method of G. B. Brown); conditions: testing typically at a test concentration of 10 μM

Structure (SMILES) | melting point [°C] | pKi [1] | AMPA Inh. [%] (inhibition of the cainate-induced signal at the AMPA receptor) (AMPA receptor)
Cc1cccc(-n2nc(-c3ccccc3)n(CCN(C)C)c2=O)c1 (as salt: HCl) [Example 53, 4-(2-N,N-dimethyl-amino-ethyl)-2-(3-methyl-phenyl)-5-phenyl-3H-1,2,4-triazol-3-one] | 204 to 206 |  | 
CCc1ccccc1-n1[nH]c(-c2ccccc2)nc1=O [Example 48, 2-(2-ethyl-phenyl)-5-phenyl-3H-1,2,4-triazol-3-one] | 209 to 210 |  | 63
Cc1cccc(-n2[nH]c(-c3ccccc3)nc2=O)c1 [Example 46, 2-(3-methyl-phenyl)-5-phenyl-3H-1,2,4-triazol-3-one] |  |  | 54
COc1cccc(-n2nc(-c3ccccc3)n(C)c2=O)c1 [Example 5, 2-(3-methoxy-phenyl)-4-methyl-5-phenyl-3H-1,2,4-triazol-3-one] | 81 to 83 |  | 58
Cc1ccccc1-n1[nH]c(-c2ccccc2)nc1=O [Example 1, 2-(2-methyl-phenyl)-5-phenyl-3H-1,2,4-triazol-3-one] | 208 to 211 |  | 58
Cn1c(-c2ccccc2)nn(-c2ccccc2Cl)c1=O [Example 55, 2-(2-chloro-phenyl)-4-methyl-5-phenyl-3H-1,2,4-triazol-3-one] | 94 to 96 |  | 80
Cc1cccc(-n2nc(-c3ccccc3)n(C)c2=O)c1 [Example 50, 4-methyl-2-(3-methyl-phenyl)-5-phenyl-3H-1,2,4-triazol-3-one] | 91 to 92 |  | 71
O=c1nc(-c2ccccc2)[nH]n1-c1ccccc1Cl [Example 33, 2-(2-chloro-phenyl)-5-phenyl-3H-1,2,4-triazol-3-one] | 257 |  | 97
Cc1cccc(-n2[nH]c(-c3ccccc3)nc2=O)c1 (as salt: HCl) [Example 46, 2-(3-methyl-phenyl)-5-phenyl-3H-1,2,4-triazol-3-one] | 207 to 208 |  | 
Cc1cccc(-n2nc(-c3ccccc3)n(CCN(C)C)c2=O)c1 [Example 53, 4-(2-N,N-dimethyl-amino-ethyl)-2-(3-methyl-phenyl)-5-phenyl-3H-1,2,4-triazol-3-one] |  | 5.24 | 

The next lines start with results.

melting point [°C] | pKi [1] | Structure (SMILES) | AMPA Inh. [%] (inhibition of the cainate-induced signal at the AMPA receptor) (AMPA receptor)
246 to 264 |  | O=c1nc(-c2ccccc2)[nH]n1-c1ccccc1Br [Example 56, 2-(2-bromo-phenyl)-5-phenyl-3H-1,2,4-triazol-3-one] | 96
81 |  | Cn1c(-c2ccccc2)nn(-c2cccc(F)c2)c1=O [Example 42, 2-(3-fluoro-phenyl)-4-methyl-5-phenyl-3H-1,2,4-triazol-3-one] | 96
 | 5.27 | Cc1ccccc1-n1nc(-c2ccccc2)n(CCN(C)C)c1=O [Example 27, 4-(2-N,N-dimethyl-aminoethyl)-2-(2-methyl-phenyl)-5-phenyl-3H-1,2,4-triazol-3-one] | 64
 | 5.18 | CN(C)CCn1c(-c2ccccc2)nn(-c2cccc(F)c2)c1=O [Example 49, 2-(3-fluorophenyl)-4-(2-N,N-dimethyl-aminoethyl)-5-phenyl-3H-1,2,4-triazol-3-one] | 
275 to 277 |  | COc1ccccc1-n1[nH]c(-c2ccccc2)nc1=O [Example 32, 2-(2-methoxy-phenyl)-5-phenyl-3H-1,2,4-triazol-3-one] | 73
204 to 207 |  | Cc1ccccc1-n1nc(-c2ccccc2)n(CCN(C)C)c1=O (as salt: HCl) [Example 27, 4-(2-N,N-dimethyl-aminoethyl)-2-(2-methyl-phenyl)-5-phenyl-3H-1,2,4-triazol-3-one] | 
117 |  | COc1ccccc1-c1nn(-c2ccccc2)c(=O)n1C [Example 25, 5-(2-methoxy-phenyl)-4-methyl-2-phenyl-3H-1,2,4-triazol-3-one] | 72
238 to 240 |  | O=c1nc(-c2ccccc2)[nH]n1-c1ccccc1F [Example 37, 2-(2-fluoro-phenyl)-5-phenyl-3H-1,2,4-triazol-3-one] | 86
 | 5.68 | CN(C)CCn1c(-c2ccccc2)nn(-c2cccc(Cl)c2)c1=O [Example 35, 2-(3-chloro-phenyl)-4-(2-N,N-dimethylamino-ethyl)-5-phenyl-3H-1,2,4-triazol-3-one] | 
201 to 203 |  | CN(C)CCn1c(-c2ccccc2)nn(-c2cccc(F)c2)c1=O (as salt: HCl) [Example 49, 2-(3-fluorophenyl)-4-(2-N,N-dimethyl-aminoethyl)-5-phenyl-3H-1,2,4-triazol-3-one] | 
65 to 66 |  | Cn1c(-c2ccccc2)nn(-c2ccccc2F)c1=O [Example 44, 2-(2-fluoro-phenyl)-4-methyl-5-phenyl-3H-1,2,4-triazol-3-one] | 76
118 |  | COc1ccc(-c2nn(-c3ccccc3)c(=O)n2C)cc1 [Example 22, 5-(4-methoxy-phenyl)-4-methyl-2-phenyl-3H-1,2,4-triazol-3-one] | 50
80 to 82 |  | Cn1c(-c2ccccc2)nn(-c2ccccc2Br)c1=O [Example 8, 2-(2-bromo-phenyl)-4-methyl-5-phenyl-3H-1,2,4-triazol-3-one] | 87
